The text below walks through data of patent publication US7244751B2, “Histone deacetylase inhibitors of novel benzamide derivatives with potent differentiation and anti-proliferation activity” (Shenzhen Chipscreen Biosciences Ltd., priority 2003, dated 2007).

Bounds are passed on as bounds.

In experiment [1] the test system is HL-60, human myloid leukemia. As to the kind of experiment: Growth inhibition by MTS method, HL-60. Type of experiment: cell-based. Conditions: 48 hours with compound, read-out: GI50 against HL-60. How it is done: (§1) Growth inhibition tests were carried out by MTS method. Approximately 72 hours before the viability assay, cells were seeded into 96-well plates at 5-10×10^3 cells/well (according to the growth rate of individual cell lines used). 24 hours later, the tested compounds at different concentrations were added, and the cells were cultured for 48 hours, then added 20 μl/well of CellTiter 96 AQueous One Solution Reagent containing tetrazolium compound (Promega) into each well. MTS was subsequently added to the culture medium. After incubation of the plates for 2 hours at about 37° C., the absorbance at 490 nm was recorded by a 96-well plate reader. Cell viability was calculated by Atreatment/Acontrol×100% (A represents the absorbance recorded at 490 nm). […] All of the compounds were dissolved in DMSO and were added to the culture at a 1:1000 dilution to give a final DMSO concentration of ≦0.1%. All samples were assayed in duplicate, and each experiment was repeated at least three times.
A general note: Tetrazolium assays rely on reduction of a dye to a coloured formazan, in cell work by metabolically active cells.

Experiment [2] has as its system 293, human embryonic kidney. As to the kind of experiment: Growth inhibition by MTS method, 293. Type of experiment: cell-based. Conditions: 48 hours with compound, read-out: GI50 against 293. The method, then: as §1
Experiment [3] deals with MCF-7, human breast adenocarcinoma. Nature of the experiment: Growth inhibition by MTS method, MCF-7. Type of experiment: cell-based. The conditions noted are these: MCF7, 48 hours with compound, read-out: GI50 against MCF-7. The method, then: as §1
Experiment [4] relates to MDA-MB-231, human breast adenocarcinoma. As to the kind of experiment: Growth inhibition by MTS method, MDA-MB-231. Format: cell-based. Conditions: 48 hours with compound, read-out: GI50 against 231. How it is done: as §1
Experiment [5] has as its system HeLa, human cervical carcinoma. As to the kind of experiment: Growth inhibition by MTS method, HeLa. Format: cell-based. Conditions: 48 hours with compound, read-out: GI50 against HeLa. The method, then:
as §1

Experiment [6] deals with U2OS, human osteocarcinoma. Nature of the experiment: Growth inhibition by MTS method, U2OS. Type of experiment: cell-based. Conditions: 48 hours with compound, read-out: GI50 against U2OS. The method, then: as §1
Experiment [7] concerns LNCaP, human prostate cancer. Nature of the experiment: Growth inhibition by MTS method, LNCaP. Format: cell-based. The conditions noted are these: 48 hours with compound, read-out: GI50 against LNCaP. The method, then:
as §1

For experiment [8], the system named is Raji, human Burkitts Lymphoma. Nature of the experiment: Growth inhibition by MTS method, Raji. Format: cell-based. The conditions noted are these: 48 hours with compound, read-out: GI50 against Raji. How it is done:
as §1

For experiment [9], the system named is Jurkat, human T cell leukemia. As to the kind of experiment: Growth inhibition by MTS method, Jurkat. The conditions noted are these: 48 hours with compound, read-out: GI50 against Jurkat. Type of experiment: cell-based. How it is done: as §1
Experiment [10] deals with SMMC-7721, human hepatoma. Nature of the experiment: Growth inhibition by MTS method, SMMC-7721. Format: cell-based. Conditions: SMMC-721, 48 hours with compound, read-out: GI50 against SMMC-721. The method, then:
as §1

Experiment [11] concerns HepG2, human hepatoblastoma. As to the kind of experiment: Growth inhibition by MTS method, HepG2. Conditions: 48 hours with compound, read-out: GI50 against HepG2. Type of experiment: cell-based. How it is done:
as §1

The subject of experiment [12] is PANC-1, human pancreatic ductal carcinoma. Nature of the experiment: Growth inhibition by MTS method, PANC-1. Conditions: 48 hours with compound, read-out: GI50 against PANC-1. Type of experiment: cell-based. How it is done:
as §1

A further experiment has as its system 28SC, human macrophage. Nature of the experiment: Growth inhibition by MTS method, 28SC. Format: cell-based. Conditions: 48 hours with compound, read-out: GI50 against 28SC. How it is done: as §1
The subject of experiment [13] is SK-N-SH, human neuroblastoma. As to the kind of experiment: Growth inhibition by MTS method, SK-N-SH. Conditions: 48 hours with compound, read-out: GI50 against SK-N-SH. Type of experiment: cell-based. The method, then:
as §1

The subject of experiment [14] is SK-OV-3, human ovary adenocarcinoma. As to the kind of experiment: Growth inhibition by MTS method, SK-OV-3. Format: cell-based. Conditions: 48 hours with compound, read-out: GI50 against SK-OV-3. The method, then:
as §1

In experiment [15] the test system is SGC-7901, human gastric adenocarcinoma. As to the kind of experiment: Growth inhibition by MTS method, SGC-7901. The conditions noted are these: 48 hours with compound, read-out: GI50 against SGC-7901. Format: cell-based. How it is done: as §1
The subject of experiment [16] is DU-145, human prostate cancer. Nature of the experiment: Growth inhibition by MTS method, DU-145. Type of experiment: cell-based. Conditions: 48 hours with compound, read-out: GI50 against DU-145. How it is done:
as §1

In a further experiment the test system is H292, human lung cancer. As to the kind of experiment: Growth inhibition by MTS method, H292. Type of experiment: cell-based. The conditions noted are these: NCI-H292, 48 hours with compound, read-out: GI50 against H292. How it is done: as §1
Experiment [17] deals with HDAC (extract from HeLa cells containing HDAC activity). Nature of the experiment: HDAC colorimetric activity assay kit (BIOMOL), HeLa cell extract. Format: biochemical, human. How it is done: Briefly, the tested compounds at different concentrations were added to 96-well plates, then mixed with extract from HeLa cells containing HDAC activity provided by the manufacturer. HDAC reactions were initiated by adding substrate. 10 minutes later, the reactions were stopped by addition of Color De Lys Developer. Microplates were read in a plate reader at 405 nm. Inhibition of HDAC activity was calculated following the instructions.

In the case of `Nc1cc(F)ccc1NC(=O)c1ccc(CNC(=O)/C=C/c2cccnc2)cc1` [CS02100055, N-(2-amino-4-fluorophenyl)-4-[N-(Pyridin-3-ylacryloyl)aminomethyl]benzamide], the GI50 (in general, the concentration at which growth is held to half of that of the control) in experiment [1] came out at 0.4 µM; in experiment [2], 50 µM; in [3] it was 5 µM; in experiment [4], 7.9 µM; in [5] it was 40 µM; in [6], 2 µM. Moreover, the GI50 in experiment [7] was 4 µM; in experiment [8] it was 4 µM; in [9], 1.5 µM; in experiment [10], 16 µM; in experiment [11], 4 µM; in experiment [12], 6.3 µM. In addition, the GI50 in the experiment on 28SC, human macrophage was determined as 5.8 µM; in [13] it was 50 µM; in [14], 50 µM; in experiment [15], 50 µM; in [16], 25 µM; in the experiment with H292, human lung cancer, 50 µM.

Regarding `Nc1ccccc1NC(=O)c1ccc(CNC(=O)OCc2cccnc2)cc1` [MS-275, N-(2-aminophenyl)-4-[N-(pyridin-3-ylmethoxycarbonyl)aminomethyl]benzamide, reference compound], the GI50 in [1] stood at 0.32 µM; in experiment [2], 16 µM; in experiment [3], 6.3 µM; in experiment [4], 5 µM; in [5], 25 µM; in experiment [6], 1 µM. Besides, the GI50 in [7] was 2.5 µM; in experiment [8] it was 6.3 µM; in [9], 1.6 µM; in experiment [10] it was 20 µM; in experiment [11], 3.2 µM; in experiment [12] it was 5 µM. Moreover, the GI50 was found to be 4 µM in the experiment on 28SC, human macrophage; 50 µM in experiment [13]; 50 µM in experiment [14]; 50 µM in experiment [15]; 13 µM in experiment [16]; 16 µM in the experiment on H292, human lung cancer.

`Nc1ccccc1NC(=O)c1ccc(CNc2ccc(F)cc2)cc1` [CS02100019, N-(2-aminophenyl)-4-[N-(4-fluorophenyl)aminomethyl]benzamide]: the GI50 was found to be 0.5 µM in experiment [1]; 25 µM in experiment [2]; 5 µM in experiment [3]; 7.9 µM in experiment [4]; 50 µM in experiment [5]; 2.5 µM in [6]. The 50% growth inhibitory concentration (GI50) in experiment [7] amounted to 10 µM; in experiment [8], 2 µM; in [9] it was 1 µM; in experiment [10] it was 50 µM; in experiment [11], 3.2 µM; in experiment [12], 5 µM. Besides, the GI50 in the experiment on 28SC, human macrophage worked out at 2 µM; in experiment [13], 50 µM; in experiment [14] it was 50 µM; in [15], 50 µM; in [16], 50 µM; in the experiment with H292, human lung cancer, 50 µM. Further, in [17] (HDAC activity, HeLa extract), the IC50 (commonly the concentration needed to halve the response being measured) is above 50 µM. Besides, the “% of inhibition of HDAC activity” value in [17] (concentration 1 μM) is given as 11.3%; in [17] (concentration 5 μM) it was 24.9%; in experiment [17] (concentration 10 μM), 28.4%; in [17] (concentration 50 μM) it was 29.8%.
